Here are results for 42 compounds from PubChem BioAssay AID1996.

≈ marks a conversion by molar mass, not a printed value.

The conditions of the series: buffer; pH 7.4; 200.0 µM.
The compound `Cc1cccc(-c2noc(C(C)NC(=O)c3ccco3)n2)c1` (configuration not stated) gave a kinetic solubility of 32.9 µg/mL (≈ 111 µM).
Under `CC(=O)Nc1ccc(S(=O)(=O)NC2C3(C)CCC(C3)C2(C)C)cc1` (configuration not stated) stands below 0.4 µg/mL; under `O=C(NC1=NCCS1)c1ccccc1OCc1ccc(F)cc1`, below 0.4 µg/mL.
`COc1cc(NC(=O)c2ccc(OCc3c(C)noc3C)c(OC)c2)cc(OC)c1`: the kinetic solubility is 5.4 µg/mL (≈ 13.1 µM).
For the compound `CCOC(=O)c1csc(NC(=O)C2=COCCO2)n1`, the kinetic solubility is above 42.6 µg/mL.
`Cc1ccc(S(=O)(=O)NCc2ccccc2)cc1` yielded a kinetic solubility of 25.9 µg/mL (≈ 99.1 µM).
`O=C(CCC(=O)c1ccccc1)NCc1ccccc1` came in with a kinetic solubility above 40.1 µg/mL.
Under `Cc1ccc(C(=O)N2CCN(c3ccccn3)CC2)cc1Cl` stands above 47.4 µg/mL.
In turn, `CC(OC(=O)c1ccc(O)cc1)C(=O)Nc1ccc(Oc2ccccc2)cc1` (configuration not stated) yielded a kinetic solubility of 5 µg/mL (≈ 13.2 µM).
`Cc1cc(C)cc(N2CC(C)Cn3c2nc2c3c(=O)[nH]c(=O)n2C)c1` (configuration not stated): the kinetic solubility worked out at 13 µg/mL (≈ 38.3 µM).
Regarding `CCOC(=O)C1CCN(S(=O)(=O)c2ccc(-c3ccccn3)s2)CC1`, the solubility (kinetic) is 3.9 µg/mL (≈ 10.2 µM).
`Cc1ccc(S(=O)(=O)/C(=C\N(C)C)c2cnc(Cl)s2)cc1` came in with a solubility (kinetic) above 51.4 µg/mL.
In turn, `CC1CCN(C(=S)c2cccc(O)c2)CC1` gave a solubility (kinetic) of 32.8 µg/mL (≈ 139 µM).
Compound `CC(=O)N1CCC(C(=O)Nc2cc(C)cc(C)c2)CC1` showed a kinetic solubility above 41.2 µg/mL.
With `N#C/C=C(/c1ccc(F)cc1)N1CCOCC1`, the kinetic solubility was above 34.8 µg/mL.
`COc1ccc(S(=O)(=O)N2CCSCC2)cc1C(N)=O` displayed a kinetic solubility of 25 µg/mL (≈ 79 µM).
Compound `CCCCn1c2ccccc2c2cc(CC(N)=O)ccc21` displayed a solubility (kinetic) of 3.8 µg/mL (≈ 13.6 µM).
As to `COCCOc1ccc(C(F)(F)F)cc1NC(=O)COC(=O)c1ccc(N2CCCC2=O)cc1`, the kinetic solubility came out at 3 µg/mL (≈ 6.24 µM).
For `CC1Oc2ccccc2N(CC(=O)NC2CC2)C1=O` (configuration not stated), the kinetic solubility was above 39 µg/mL.
Turning to `O=C(O)c1cc(NC(=O)c2ccco2)cc(NC(=O)c2ccco2)c1`, the solubility (kinetic) was determined as 44.4 µg/mL (≈ 130 µM).
For the compound `O=C(NCc1ccccc1F)c1ccc2c(c1)OCCO2`, the solubility (kinetic) is above 43.1 µg/mL.
With `CC(=O)c1ccc(N2CCN(C(=O)Nc3ccc(Cl)cc3)CC2)cc1`, the solubility (kinetic) is 1.3 µg/mL (≈ 3.63 µM).
For `Cc1cnc(NC(=O)C2CC=CCC2)s1` (configuration not stated), the solubility (kinetic) came out at 23.9 µg/mL (≈ 108 µM).
Under `CC(=O)c1ccc(O)c(CSc2nncn2C)c1` stands above 39.5 µg/mL.
In the case of `COc1ccc(CCNC(=O)COC(=O)/C=C/c2cc(OC)ccc2OC)cc1`, the solubility (kinetic) was determined as 5.3 µg/mL (≈ 13.3 µM).
The compound `COc1ccccc1NC(=O)NCc1ccc(C)n1C` returned a kinetic solubility of 19.9 µg/mL (≈ 72.8 µM).
Regarding `O=C(NN1CCOCC1)c1ccc(Cl)cc1Cl`, the kinetic solubility is above 41.3 µg/mL.
`COc1ccc(Br)cc1CN(C)C(=O)C1=CC=CN2CCS(=O)(=O)N=C12` gave a kinetic solubility of 43.1 µg/mL (≈ 97.9 µM).
`O=C(COc1ccc2c(c1)OCO2)Nc1nccs1` had a solubility (kinetic) of 20.9 µg/mL (≈ 75.1 µM).
`O=Nc1ccc(O)c2ncccc12` registered a solubility (kinetic) above 26.1 µg/mL.
Regarding `CCN1C(=O)C(=O)N(CC(=O)Nc2cccc(C(F)(F)F)c2)C1=O`, the kinetic solubility is above 51.5 µg/mL.
As for `Cc1nc(Cc2ccc(OC(C)C)cc2)[nH]c(=O)c1CC(=O)O`, the solubility (kinetic) was above 47.5 µg/mL.
`CC(=O)Nc1nc2cccc([N+](=O)[O-])c2s1` gave a solubility (kinetic) of 2.8 µg/mL (≈ 11.8 µM).
`Cc1ccc(-c2csc3nc[nH]c(=O)c23)cc1`: the solubility (kinetic) was 19.5 µg/mL (≈ 80.5 µM).
Under `Cn1cc(C(=O)C(=O)NCCc2ccccc2)c2ccccc21` stands 0.6 µg/mL (≈ 1.96 µM).
As to `O=C(O)CC1(CC(=O)NCc2ccc(F)cc2)CCCCC1`, the solubility (kinetic) is above 46.1 µg/mL.
Turning to `COc1ccc(NCC(=O)N2CCCC2)cc1Cl`, the solubility (kinetic) came out at 38 µg/mL (≈ 141 µM).
Compound `COc1ccc(C)cc1S(=O)(=O)N1CCCCCC1` came in with a kinetic solubility of 40.7 µg/mL (≈ 144 µM).
For `Cc1ccccc1OCCn1ccnc1`, the kinetic solubility came out at 24.5 µg/mL (≈ 121 µM).
The compound `C=CCn1c(SCC(=O)N(C)C)nc2cc(C(=O)O)ccc2c1=O` displayed a kinetic solubility above 52.1 µg/mL.
The compound `O=C(Nc1ccc(Cl)cn1)C1COc2ccccc2O1` (configuration not stated) showed a kinetic solubility of 2 µg/mL (≈ 6.88 µM).
`CN(Cc1ccccc1)S(=O)(=O)c1ccc(Cl)c(C(=O)O)c1` yielded a solubility (kinetic) above 51 µg/mL.

As usually defined, the kinetic solubility is solubility judged after dilution from a stock solution rather than from solid.
